For 50 compounds, IC50 results are on record in US20070270418A1, “Inhibitors of P38 and Methods of Using the Same” (priority 2003, published 2007).

One may read the IC50 as the midpoint of a concentration-inhibition curve.

Where two headings read alike, the source gives them in different places.

For test [1], the target named is T1, p38α (Homo sapiens, UniProt Q16539).
T1 construct: p38 MAP Kinases are recombinant human full-length proteins with an amino-terminal GST fusion; GST (N); purchased Upstate (Charlottesville, Va.); host or cells: E. coli
In words: p38 MAP Kinase assay, ATF2 phosphorylation (ELISA). To be noted: 40 μM ATP. It is filed as biochemical. The procedure, abridged: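 ATF2 Thr69 phosphorylation was quantified by ELISA (HRP/TMB, 450 nm) after EDTA termination. Reactions: 6 ng GST-fused full-length human p38α, 15 min compound pre-incubation at room temperature, then 30 min at 37° C with 40 μM ATP and 1.25 μM GST-ATF2 (aa 19-96), pH 7.5 HEPES buffer.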
On the technique in general: In an ELISA, binding on a coated surface is turned into a signal by an enzyme label.

Test [2] relates to TNFα release from THP-1 cells. Put plainly: TNFα release from LPS-stimulated THP-1 cells. Type of test: cell-based. An excerpt: Compounds of the invention are screened for the ability to inhibit TNFα and IL-1β release from THP-1 cells stimulated with lipopolysaccharide (LPS) in vitro. The ability of compounds to inhibit TNFα and IL-1β release in this in vitro assay is correlated with the inhibition of p38 activity and TNFα and IL-1β expression in vivo, and is therefore an indicator of potential in vivo therapeutic activity (Lee J. C. et al, Ann. N.Y. Acad. Sci. 696: 149-170, 1993 and Nature, 372: 739-746, 1994).
THP-1 cells from ATCC (TIB202) are maintained at 37° C., 5% CO2 in RPMI 1640 media (MediaTech, Herndon, Va.) containing 4.5 g/L glucose, supplemented with 10% fetal bovine serum, 1% penicillin/streptomycin and 50 μM β-mercaptoethanol.
Test compounds are initially dissolved in RPMI media with 1% DMSO (v/v). Compounds are then serially diluted in RPMI media for all subsequent dilutions. The assay is performed under sterile conditions. THP-1 cells at a culture density of 6-8×10^5 cells/ml are collected and resuspended in the RPMI media at 10^6 cells/ml. 100 μl of resuspended cells are added to each well, which contain 100 μl of a test compound. Test compounds are prepared at twice the final concentration. Final DMSO concentration is no more than 0.5% (v/v). Cells are preincubated with compound for 30 minutes at 37° C., 5% CO2 prior to stimulation with lipopolysaccharide (LPS) (Sigma L-2880, 4 mg/ml stock in PBS). The final LPS concentration in each well is 10 or 30 μg/ml for TNFα and IL-1β release, respectively. Unstimulated control cell suspensions receive PBS vehicle only. Cell mixtures are incubated for 18 or 48 hours for TNFα and IL-1β release, respectively. 150 μl of supernatants are taken and transferred to a fresh plate and stored at −20° C. until further analysis.

Where [3] appears, read: Homo sapiens, THP-1, 18 h, LPS 10 μg/ml, 18 hours, read-out: TNFα (THP-1) IC50.
Setting [4] is: Homo sapiens, THP-1, 18 h, read-out: TNFα (THP-1) IC50 (nM).

T1 sequence (Q16539 whole entry, the tested form may be a part): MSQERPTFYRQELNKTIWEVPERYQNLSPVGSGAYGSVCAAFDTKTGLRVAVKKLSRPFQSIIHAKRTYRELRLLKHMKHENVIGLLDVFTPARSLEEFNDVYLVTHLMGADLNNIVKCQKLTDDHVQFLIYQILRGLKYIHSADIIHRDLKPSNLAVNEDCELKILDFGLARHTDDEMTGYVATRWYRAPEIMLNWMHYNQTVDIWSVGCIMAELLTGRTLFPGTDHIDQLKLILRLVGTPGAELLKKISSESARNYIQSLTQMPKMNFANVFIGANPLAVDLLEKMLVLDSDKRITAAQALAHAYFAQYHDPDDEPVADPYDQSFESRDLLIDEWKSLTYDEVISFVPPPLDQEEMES

Regarding `Fc1ccc(-c2nc3occn3c2-c2ccnc(NCC3CCCNC3)n2)cc1` (stereo not shown) [LXXXVIII], the half-inhibitory concentration (IC50) in test [1] is 39.9 nM; in test [2] (setting [3]), 87 nM.
`C[C@H](O)[C@H](CO)Nc1nccc(-c2c(-c3ccc(F)cc3)nc3occn23)n1` [CIV]: the IC50 was found to be 8.62 nM in test [1] and 6 nM in test [2] (setting [4]).
Take `OC[C@H](Cc1ccccc1)Nc1nccc(-c2c(-c3ccc(F)cc3)nc3sccn23)n1` [CLXXXI]: the IC50 in test [1] came out at 176 nM; in test [2] (setting [3]), 138 nM.
`Fc1ccc(CNc2nccc(-c3c(-c4ccc(F)cc4)nc4sccn34)n2)cc1` [CXLIV]: the results for the IC50 in test [1] and in test [2] (setting [3]) were 54.1 nM and 182 nM, respectively.
As to `CN(C)CC(C)(C)CNc1nccc(-c2c(-c3ccc(F)cc3Cl)nc3occn23)n1` [CCXCX], the IC50 in test [1] was 20.3 nM; in test [2] (setting [3]), 78.2 nM.
Taken in the same sequence, the figures for `CC(C)(CNC(=O)OC(C)(C)C)CNc1nccc(-c2c(-c3ccc(F)cc3)nc3sccn23)n1` [CCLXIII] were 5.85 nM and 23.3 nM.
As for `CC(C)(C)OC(=O)N1CCCC(Nc2nccc(-c3c(-c4ccc(F)cc4)nc4sccn34)n2)C1` (stereo not shown) [CCLXII], the figures for the IC50 in test [1] and in test [2] (setting [3]) were 29.8 nM and 196 nM, respectively.
`OCC1(Nc2nccc(-c3c(-c4ccc(F)cc4)nc4occn34)n2)CCCC1` [LIV]: the results for the IC50 in test [1] and in test [2] (setting [3]) were 30.2 nM and 11.8 nM, respectively.
`COC[C@H](C)Nc1nccc(-c2c(-c3ccc(F)cc3)nc3occn23)n1` [XXXII]: the IC50 in test [1] was determined as 19 nM; in test [2] (setting [3]), 4.89 nM.
The matching figures for `Nc1ccc(CCNc2nccc(-c3c(-c4ccc(F)cc4)nc4occn34)n2)cc1` [CXV]: 1.73 nM and 41.9 nM.
For `C=CCNc1nccc(-c2c(-c3ccc(F)cc3)nc3occn23)n1` [XXIII], the IC50 turned out to be 11.9 nM in test [1] and 9.08 nM in test [2] (setting [3]).
Turning to `CC(C)[C@@H](CO)Nc1nccc(-c2c(-c3ccc(Br)cc3)nc3sccn23)n1` [CCI], the IC50 came out at 75.7 nM in test [1] and 101 nM in test [2] (setting [3]).
As to `Oc1ccc(CCNc2nccc(-c3c(-c4ccc(F)cc4)nc4occn34)n2)cc1` [CXII], the values for the IC50 in test [1] and in test [2] (setting [3]) were 3.45 nM and 13.1 nM, respectively.
For the compound `CC(C)(C)OC(=O)N1CCC(Nc2nccc(-c3c(-c4cccc(C(F)(F)F)c4)nc4occn34)n2)CC1` [CCCXI], the IC50 in test [1] is 18 nM; in test [2] (setting [3]) it was 611 nM.
Taken in the same sequence, the figures for `CC(C)[C@H](CO)Nc1nccc(-c2c(-c3ccc(F)cc3)nc3occn23)n1` [CIII] were 7.57 nM and 20 nM.
Taken in the same sequence, the figures for `Fc1ccc(-c2nc3occn3c2-c2ccnc(N[C@@H]3CN4CCC3CC4)n2)c(Cl)c1` [CCXC] were 6.8 nM and 72 nM.
`Cc1ccccc1-c1nc2occn2c1-c1ccnc(N[C@H]2CN3CCC2CC3)n1` [CCCII]: the IC50 in test [1] was 13.8 nM; in test [2] (setting [4]), 5.5 nM.
As to `CCC(O)CNc1nccc(-c2c(-c3ccc(F)cc3)nc3sccn23)n1` (stereo not shown) [CCXLII], the IC50 in test [1] stood at 3.28 nM; in test [2] (setting [3]), 3.83 nM.
On to `CC(CN(C)C)Nc1nccc(-c2c(-c3ccc(F)cc3)nc3occn23)n1` (stereo not shown) [CXXIV], for which the results for the IC50 in test [1] and in test [2] (setting [3]) were 59.6 nM and 67.7 nM, respectively.
As for `Fc1ccc(-c2nc3occn3c2-c2ccnc(NCc3ccco3)n2)cc1` [XXXVII], the IC50 worked out at 5.95 nM in test [1] and 21.5 nM in test [2] (setting [3]).
The matching figures for `CC(=O)N1CCC(Nc2nccc(-c3c(-c4ccc(F)cc4)nc4sccn34)n2)CC1` [CCLIII]: 1.65 nM and 6.27 nM.
`Fc1ccc(-c2nc3occn3c2-c2ccnc(NCC3CC3)n2)cc1` [XXIX]: the IC50 in test [1] is 4.28 nM; in test [2] (setting [3]) it was 4.45 nM.
Consider `CCCC[C@H](CO)Nc1nccc(-c2c(-c3ccc(F)cc3)nc3occn23)n1` [CXI], for which the results for the IC50 in test [1] and in test [2] (setting [3]) were 11.2 nM and 65.9 nM, respectively.
As to `C[C@H](O)CNc1nccc(-c2c(-c3ccc(F)cc3)nc3sccn23)n1` [CCXIV], the IC50 in test [1] is 12.1 nM; in test [2] (setting [3]), 5.03 nM.
For `Fc1ccc(-c2nc3occn3c2-c2ccnc(N[C@@H]3CN4CCC3CC4)n2)c(F)c1` [CCLXXXIX], the IC50 in test [1] worked out at 1.3 nM; in test [2] (setting [4]) it was 3.2 nM.
On to `Fc1ccc(-c2nc3occn3c2-c2ccnc(NCCc3ccncc3)n2)cc1` [LI], for which the IC50 turned out to be 8.06 nM in test [1] and 94.4 nM in test [2] (setting [3]).
Regarding `Fc1ccc(-c2nc3sccn3c2-c2ccnc(NCCN3CCCCC3)n2)cc1` [CCXLV], the values for the IC50 in test [1] and in test [2] (setting [3]) were 82.1 nM and 14.2 nM, respectively.
Take `O[C@H]1CC[C@H](Nc2nccc(-c3c(-c4ccc(F)cc4)nc4occn34)n2)CC1` [LIX]: the IC50 in test [1] worked out at 1.79 nM; in test [2] (setting [3]), 55.4 nM.
Take `Cc1ccc(CNc2nccc(-c3c(-c4ccc(F)cc4)nc4occn34)n2)o1` [XXXVI]: the IC50 in test [1] is 103 nM; in test [2] (setting [3]), 76.6 nM.
Consider `CC(C)[C@@H](CO)Nc1nccc(-c2c(-c3cccc(F)c3)nc3sccn23)n1` [CCIX], for which the IC50 in test [1] amounted to 26 nM; in test [2] (setting [3]), 55.9 nM.
Taken in the same sequence, the figures for `Fc1ccc(-c2nc3occn3c2-c2ccnc(NCCN3CCCCC3)n2)cc1` [CXVI] were 236 nM and 376 nM.
The matching figures for `CC(C)[C@@H](CO)Nc1nccc(-c2c(-c3ccc(F)c(F)c3)nc3sccn23)n1` [CCVII]: 191 nM and 43.4 nM.
`C[C@H](O)CNc1nccc(-c2c(-c3ccc(F)cc3)nc3occn23)n1` [XXI]: the IC50 in test [1] was 6.86 nM; in test [2] (setting [3]), 13.9 nM.
As to `CC(=O)N1CCC(Nc2nccc(-c3c(-c4ccc(F)cc4Cl)nc4occn34)n2)CC1` [CCCIX], the IC50 in test [1] was found to be 1.3 nM; in test [2] (setting [3]), 6.5 nM.
`CCCNc1nccc(-c2c(-c3ccc(F)cc3)nc3sccn23)n1` [CCXVI]: the IC50 in test [1] was 4.68 nM; in test [2] (setting [3]), 5.15 nM.
Turning to `C[C@@H](Nc1nccc(-c2c(-c3ccc(F)cc3)nc3sccn23)n1)C(N)=O` [CCLIX], the IC50 worked out at 22.2 nM in test [1] and 47.7 nM in test [2] (setting [3]).
On to `Clc1ccccc1-c1nc2occn2c1-c1ccnc(N[C@H]2CN3CCC2CC3)n1` [CCCIII], for which the IC50 in test [1] stood at 12.5 nM; in test [2] (setting [4]), 9 nM.
Consider `NCCNc1nccc(-c2c(-c3ccc(F)cc3)nc3occn23)n1` [LXXXIX], for which the IC50 in test [1] is 253 nM; in test [2] (setting [3]), 599 nM.
Take `Fc1ccc(-c2nc3occn3c2-c2ccnc(NCc3ccncc3)n2)cc1` [LXXIII]: the IC50 is 234 nM in test [1] and 96.6 nM in test [2] (setting [3]).
With `CCSCCNc1nccc(-c2c(-c3ccc(F)cc3)nc3occn23)n1` [XLIV], the figures for the IC50 in test [1] and in test [2] (setting [3]) were 10.5 nM and 34.5 nM, respectively.
For the compound `CCC[C@H](CO)Nc1nccc(-c2c(-c3ccc(F)cc3)nc3occn23)n1` [CVI], the figures for the IC50 in test [1] and in test [2] (setting [3]) were 5.2 nM and 30.6 nM, respectively.
Consider `Fc1ccc(-c2nc3occn3c2-c2ccnc(NC3CCC3)n2)cc1` [XXIV], for which the IC50 came to 15 nM in test [1] and 1.78 nM in test [2] (setting [3]).
As for `CC(C)(Nc1nccc(-c2c(-c3ccc(F)cc3)nc3occn23)n1)C(O)c1ccccc1` (stereo not shown) [CXXVII], the IC50 in test [1] is 28.5 nM; in test [2] (setting [3]), 249 nM.
Regarding `CC(CN(C)C)Nc1nccc(-c2c(-c3ccc(F)cc3)nc3sccn23)n1` (stereo not shown) [CCLVII], the IC50 was 25.4 nM in test [1] and 38.6 nM in test [2] (setting [3]).
As for `C[C@@H](Nc1nccc(-c2c(-c3ccc(F)cc3)nc3occn23)n1)C(N)=O` [CXXVI], the IC50 in test [1] stood at 29.4 nM; in test [2] (setting [3]) it was 86.1 nM.
Consider `Fc1ccc(-c2nc3occn3c2-c2ccnc(NCc3cccs3)n2)cc1` [XLIX], for which the results for the IC50 in test [1] and in test [2] (setting [3]) were 5.87 nM and 20 nM, respectively.
Taken in the same sequence, the figures for `CC[C@H](CO)Nc1nccc(-c2c(-c3ccc(F)cc3)nc3sccn23)n1` [CCXXXV] were 2.08 nM and 2.95 nM.
Turning to `CC(CO)Nc1nccc(-c2c(-c3ccc(F)cc3)nc3occn23)n1` (stereo not shown) [XXX], the IC50 was determined as 34.8 nM in test [1] and 12.3 nM in test [2] (LPS 10 μg/ml, 18 hours, read-out: TNFα (THP-1) IC50).
As for `CC(C)Nc1nccc(-c2c(-c3ccc(F)cc3)nc3occn23)n1` [C], the IC50 is 0.893 nM in test [1] and 3.19 nM in test [2] (setting [3]).
Regarding `CN(C)CC(C)(C)CNc1nccc(-c2c(-c3ccccc3Cl)nc3occn23)n1` [CCLXXXII], the IC50 in test [1] is 44.8 nM; in test [2] (setting [3]) it was 88.4 nM.
